Measured values as given in ChEMBL document CHEMBL1201862, “PubChem BioAssay data set” (2004).
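In this assay, cells in 96-well plates receive the compound at five concentrations for 48 hours. Endpoints are linearly interpolated between the surrounding concentrations. GI50 = concentration required for 50% inhibition of growth.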 Active and inactive are the calls of the source. No stated cut-off is given here; in the data, active = GI50 up to about 1.1 µM and inactive = higher. Where a SMILES comes first, the peptide text is derived from it. [ ]: non-standard residue; d: D form. The star is where a group is joined. NMeF = CN[CH](Cc1ccccc1)C(=O)O; NMeV = CN[CH](C(=O)O)C(C)C; Boc = CC(C)(C)OC(=O)*; OBn = c1ccc(CO*)cc1

Experiments:
Assay in all cases: NCI anticancer screen, dose series, 48 h
[1] = tested on: OVCAR-8
[2] = tested on: OVCAR-3
[3] = tested on: OVCAR-4
[4] = tested on: HT-29
[5] = tested on: K562
[6] = tested on: SF-539
[7] = tested on: IGROV-1
[8] = tested on: RPMI-8226
[9] = tested on: EKVX
[10] = tested on: SW-620
[11] = tested on: SR
[12] = tested on: U-251
[13] = tested on: MOLT-4
[14] = tested on: SK-MEL-5
[15] = tested on: LXFL 529
[16] = tested on: ACHN
[17] = tested on: NCI-H522
[18] = tested on: SK-MEL-2
[19] = tested on: HCT-116

Measured: GI50

O=C1C2c3[nH]c4ccccc4c3C3CCCCC3C2C(=O)N1c1ccccc1 (configuration not stated)
inactive: [1] > 100 µM | [2] 73.6 µM | [3] 45.1 µM | [4] > 100 µM | [5] 63.8 µM | [6] 34 µM | [7] 72.1 µM | [8] > 100 µM | [9] > 100 µM | [10] > 100 µM | [11] > 100 µM | [12] > 100 µM | [13] 64.7 µM | [14] > 100 µM | [15] > 100 µM | [16] 99.3 µM

O=c1c2c(c1=O)-c1ccccc1CN2
inactive: [1] > 100 µM | [2] > 100 µM | [3] > 100 µM | [4] > 100 µM | [17] > 100 µM | [5] > 100 µM | [6] > 100 µM | [18] > 100 µM | [7] > 100 µM | [8] > 100 µM | [9] > 100 µM | [10] > 100 µM | [12] > 100 µM | [13] > 100 µM | [14] > 100 µM | [19] > 100 µM | [15] > 100 µM | [16] > 100 µM

CC(=O)O[C@]12CCCC1C1(O)C(O)CCCC12 (some centres not stated)
inactive: [1] > 100 µM | [3] > 100 µM | [4] > 100 µM | [17] > 100 µM | [5] > 100 µM | [18] > 100 µM | [8] > 100 µM | [9] > 100 µM | [10] > 100 µM | [11] > 100 µM | [12] > 100 µM | [13] > 100 µM | [14] > 100 µM | [19] > 100 µM | [15] > 100 µM | [16] > 100 µM

c1ccc(CNn2nnc3ccccc32)cc1
inactive: [1] > 100 µM | [2] > 100 µM | [3] > 100 µM | [4] > 100 µM | [17] > 100 µM | [5] > 100 µM | [18] > 100 µM | [7] > 100 µM | [8] > 100 µM | [9] > 100 µM | [10] > 100 µM | [13] > 100 µM | [14] > 100 µM | [15] > 100 µM | [16] > 100 µM

O=C(O)c1ccc(C2C3C=CC(C3)C2[N+](=O)[O-])cc1 (configuration not stated)
inactive: [1] > 100 µM | [2] > 100 µM | [4] > 100 µM | [17] > 100 µM | [5] > 100 µM | [6] > 100 µM | [18] > 100 µM | [7] > 100 µM | [8] > 100 µM | [9] > 100 µM | [10] > 100 µM | [12] > 100 µM | [13] > 100 µM | [14] > 100 µM | [15] > 100 µM

CC(C)C(NC(=O)OC(C)(C)C)C(=O)N(C)C(Cc1ccccc1)C(=O)N(C)C(C(=O)N(C)C(C(=O)OCc1ccccc1)C(C)C)C(C)C (configuration not stated) (Boc-V[NMeF][NMeV][NMeV]-OBn; configuration not given here)
inactive: [1] > 100 µM | [2] > 100 µM | [4] 20.2 µM | [17] 16.7 µM | [5] > 100 µM | [6] > 100 µM | [7] > 100 µM | [8] 10.3 µM | [9] 89.1 µM | [10] > 100 µM | [11] 20.8 µM | [12] > 100 µM | [13] 4.81 µM | [14] 12.5 µM | [19] 66.5 µM | [15] 7.6 µM | [16] 26.4 µM

O=C(Nc1ccc(Cl)cc1C(F)(F)F)C(=O)C1CCCS1(=O)=O (configuration not stated)
inactive: [1] > 100 µM | [2] > 100 µM | [3] > 100 µM | [4] > 100 µM | [5] > 100 µM | [6] > 100 µM | [7] > 10 µM | [8] > 100 µM | [9] > 100 µM | [10] > 10 µM | [11] > 100 µM | [12] > 100 µM | [13] > 100 µM | [14] > 100 µM | [19] > 100 µM | [15] > 100 µM | [16] > 100 µM

COc1ccc([C@@H]2CC(=O)NCCCNCCCCNCCCN2)cc1
inactive: [1] > 100 µM | [3] > 100 µM | [4] > 100 µM | [17] 30.8 µM | [5] > 100 µM | [6] > 100 µM | [18] > 100 µM | [7] > 100 µM | [8] > 100 µM | [9] > 100 µM | [10] > 100 µM | [11] > 100 µM | [12] > 100 µM | [13] > 100 µM | [14] > 100 µM | [19] > 100 µM | [15] > 100 µM | [16] > 100 µM
